Assay type in all cases: in vivo
One assay concerns Echinochloa crus-galli. In words: Pre-emergence herbicidal activity against ECHCG. The following applies: Echinochloa crus-galli, 504 h, dosage 80 g/ha, scored visually after about 3 weeks vs untreated controls (100% = plants have died, 0% = like control plants). The text has this:
(§1) 1. Pre-Emergence Herbicidal Action and Crop Plant Compatibility Seeds of monocotyledonous and dicotyledonous weed plants and crop plants are placed in plastic or wood fiber pots and covered with soil. The compounds of the invention, formulated in the form of wettable powders (WP) or as emulsion concentrates (EC), are then applied onto the surface of the covering soil as aqueous suspension or emulsion with addition of 0.5% additive at a water application rate of 600 l/ha (converted). After the treatment, the pots are placed in a greenhouse and kept under good growth conditions for the trial plants. After about 3 weeks, the effect of the preparations is scored visually in comparison with untreated controls as percentages. For example, 100% activity=the plants have died, 0% activity=like control plants. ECHCG: Echinochloa crus-galli HORMU: Hordeum murinum

Another assay concerns Viola tricolor. The assay can be described thus: Pre-emergence herbicidal activity against VIOTR. The note with it: dosage 80 g/ha.
Excerpt: as §1, with “VIOTR: Viola tricolor” for “ECHCG: Echinochloa crus-galli HORMU: Hordeum murinum”

Assay [1] is described as follows: Pre-emergence treatment, summary over harmful plants. The following applies: 504 h, application rate of 0.08 kg of active substance or less per hectare, read-out: herbicidal action, pre-emergence treatment (very good activity).
Excerpt: 1. Pre-Emergence Herbicidal Action and Crop Plant Compatibility
as §1, with “Seeds” for “1. Pre-Emergence Herbicidal Action and Crop Plant Compatibility Seeds”, “plants.” for “plants. ECHCG: Echinochloa crus-galli HORMU: Hordeum murinum”
As shown by the results, compounds according to the invention such as, for example, the compounds No. I-21 and other compounds from the tables (for example I-10, I-26, I-09, I-30, I-28, I-29, I-27, I-01, I-06, I-34, I-19, I-11, I-36, I-37, I-38, I-41, I-42, I-43, I-44, I-46, I-49) have, when used for pre-emergence treatment, very good activity (80% to 100% herbicidal action) against harmful plants such as Abutilon theophrasti, Alopecurus myosuroides, Amaranthus retroflexus, Avena fatua, Echinochloa crus-galli, Hordeum murinum, Lolium rigidum, Pharbitis purpurea, Polygonum convolvulus, Setaria viridis, Stellaria media, Veronica persica and Viola tricolor at an application rate of 0.08 kg of active substance or less per hectare.

Another assay has as its system Hordeum murinum. The assay can be described thus: Pre-emergence herbicidal activity against HORMU. The note with it: Hordeum murinum, 504 h, dosage 80 g/ha.
Excerpt: as §1

The subject of a further assay is Pharbitis purpurea. The assay can be described thus: Pre-emergence herbicidal activity against PHBPU. The following applies: Ipomoea purpurea, 504 h, dosage 80 g/ha.
Excerpt: as §1, with “LOLRI: Lolium rigidum PHBPU: Pharbitis purpurea” for “ECHCG: Echinochloa crus-galli HORMU: Hordeum murinum”

For another assay, the system named is Abutilon theophrasti. In words: Pre-emergence herbicidal activity against ABUTH. The note with it: dosage 80 g/ha.
Excerpt: as §1, with “ABUTH: Abutilon theophrasti ALOMY: Alopecurus myosuroides” for “ECHCG: Echinochloa crus-galli HORMU: Hordeum murinum”

In a further assay the test system is Lolium rigidum. The assay can be described thus: Pre-emergence herbicidal activity against LOLRI. The following applies: Lolium rigidum, 504 h, dosage 80 g/ha.
Excerpt: as §1, with “LOLRI: Lolium rigidum PHBPU: Pharbitis purpurea” for “ECHCG: Echinochloa crus-galli HORMU: Hordeum murinum”

SMILES strings stand for the structures.

For `C=C[C@]1(C(=O)N[C@H]2CO[C@@H](C(=O)OC)C2)CC(c2cc(F)cc(F)c2)=NO1` (mixture of isomers) [I-10, methyl cis-4-[[(5S)-3-(3,5-difluorophenyl)-5-vinyl-4H-isoxazole-5-carbonyl]amino]tetrahydrofuran-2-carboxylate], the pest or weed control at 80 g/ha in the assay with Echinochloa crus-galli was 100%; in assay [1], 80 to 100%; in the assay on Hordeum murinum it was 100%; with Pharbitis purpurea, 80%; with Lolium rigidum it was 100%. For the same compound, the “Pre-emergence herbicidal activity against VIOTR in %” value with Viola tricolor amounted to 100%. Moreover, the “Pre-emergence herbicidal activity against ABUTH in %” value with Abutilon theophrasti was found to be 100%.

(Values after patent US11597724B2, “Herbicidally active 3-phenylisoxazoline-5-carboxamides of tetrahydro and dihydrofuran carboxylic acids and esters” (Bayer Aktiengesellschaft, priority 2017, dated 2023).)
